Laboratory results: patent US9358238B2, “Method of enhancing the performance of broiler chickens” (Intervet Inc., priority 2012, dated 2016)

Columns and labels:
Broiler chickens [1] = conditions: 1 ppm for 18 days (28 to 46 days of age); cited from earlier work
[2] = tested on: broiler chickens (Cobb 500 strain); assay: 42 day floor pen study, performance response of broiler chickens fed zilpaterol for 7 or 14 days (Example 2); assay type: in vivo
Text: “Feed efficiency” refers to: feed consumed (lbs)/total live body weight (lbs). “Adjusted Feed efficiency” refers to feed consumed (lbs)/(total live body weight (lbs)+body weight (lbs) of mortalities).
“Average daily gain” refers to body weight gain (lbs)/number of days.
“Breast weight” refers to breast weight (lbs) at slaughter.
“Carcass yield” refers to carcass weight (lbs)/live body weight (lbs)×100.
“Breast yield” refers to breast weight (lbs)/live body weight (lbs)×100.
Zilpaterol hydrochloride was fed to broiler chickens in a 42 day floor pen study to evaluate the performance response of zilpaterol compared to a non-medicated control group. Six zilpaterol treatment groups consisted of three concentration levels (1, 3, and 5 ppm) and two feeding durations (7 and 14 days) and were administered in feed plus a non medicated control group. A total of 1,680 broiler chickens were allocated by sex to 56 pens with 30 birds/pen, and 4 pens/sex/group (240 birds/group). The 7 day zilpaterol treatments began at day 35 and continued to day 42 of age. The 14 day zilpaterol treatments began at day 28 and continued until day 42 of age.
Post-treatment, there were no statistically significant 2-way or 3-way interactions of sex with duration of treatment and concentration; therefore pooled results over sex are discussed. A summary of the performance response of broiler chickens fed various levels for zilpaterol (0, 1, 3, 5, ppm) and feeding durations (7, 14 days) compared to the control are shown in the following table:
A total of 1,680 broiler chickens (Cobb 500 strain) were allocated by sex to 56 pens (28 pens of males, 28 pens of females) with 30 birds per pen according to a randomized complete block design during a 42 day study. The six zilpaterol treatment groups were in a 2×3 factorial arrangement with two feeding durations of 7 or 14 days (i.e., days 35-42 or 28-42 respectively) and three zilpaterol concentration levels of 1, 3, or 5 ppm plus an un-supplemented (negative) control group. Treatment groups were randomly assigned by sex to pens within each block.

chickens = conditions: skip a day feeding; 0, 0.2, 0.25, 0.3 mg/kg of live body weight, 20 days from 25 days of age; cited from earlier work
Broiler chickens [3] = assay: Broiler chickens fed zilpaterol daily at 1 ppm from day 8 to day 56 of age (Example 1); assay type: in vivo, chicken
Text: Broiler chickens were fed zilpaterol every day at 1 ppm from day 8 until day 56 of age. The observed zilpaterol performance response was relatively small. In this study, non significant performance increases in Average Daily Gain (ADG) of 1.3-2.6% and Feed Efficiency (FE) of 0.6%-1.9% were reported.

Japanese quails = conditions: 0, 0.2, 0.225, 0.25 mg/kg of live body weight, 21 days, birds at 26 days of age; cited from earlier work
Broiler chickens [4] = conditions: 0, 5 and 10 mg/kg, 3 to 6 weeks of age; cited from earlier work
[5] = 1 ppm in feed, 7 days (days 35-42)
[6] = 1 ppm in feed, 14 days (days 28-42)
[7] = 3 ppm in feed, 7 days (days 35-42)
[8] = 3 ppm in feed, 14 days (days 28-42)
[9] = 5 ppm in feed, 7 days (days 35-42)
[10] = 5 ppm in feed, 14 days (days 28-42)
[11] = 1 ppm every day, day 8 until day 56 of age, non significant

In the case of CC(C)(C)NCC(O)c1cc(Cl)c(N)c(Cl)c1 (stereo not drawn) [Clenbuterol], the “improvement in average daily gain (ADG) above controls” value (Broiler chickens [1]) is given as 3.3% and the “improvement in feed efficiency (FE) above controls” value (Broiler chickens [1]) is given as 3.0%.
For CC(C)NC1CCn2c(=O)[nH]c3cccc(c32)C1O (stereo not drawn) [Zilpaterol, 4,5,6,7-tetrahydro-7-hydroxy-6-(isopropylamino) imidazo[4,5,1-jk]-[1]benzazepin-2(1H)-one], the “Improvement (%) of Average Daily Gain” value ([2]; 0 vs 1 ppm, 7 days) was 5.4%, the “Improvement (%) of Body Weight Day 42” value ([2]; 0 vs 1 ppm, 7 days) was 2.1% and the “Improvement (%) of Breast Weight” value ([2]; 0 vs 1 ppm, 7 days) was 3.8%. For the same molecule, the “Improvement (%) of Carcass Yield” value ([2]; 0 vs 1 ppm, 7 days) was 4.0%, the “Improvement (%) of Feed Efficiency (FE)” value ([2]; 0 vs 1 ppm, 7 days) was 8.0% and the “Improvement (%) of Average Daily Gain” value ([2]; 0 vs 1 ppm, 14 days) was 3.3%. For the same molecule, the “Improvement (%) of Body Weight Day 42” value ([2]; 0 vs 1 ppm, 14 days) was 3.9%, the “Improvement (%) of Breast Weight” value ([2]; 0 vs 1 ppm, 14 days) was 4.2% and the “Improvement (%) of Carcass Yield” value ([2]; 0 vs 1 ppm, 14 days) was 1.8%. For the same molecule, the “Improvement (%) of Feed Efficiency (FE)” value ([2]; 0 vs 1 ppm, 14 days) was 3.3%, the “Improvement (%) of Average Daily Gain” value ([2]; 0 vs 3 ppm, 7 days) was 18.5% and the “Improvement (%) of Body Weight Day 42” value ([2]; 0 vs 3 ppm, 7 days) was 3.9%. For the same molecule, the “Improvement (%) of Breast Weight” value ([2]; 0 vs 3 ppm, 7 days) was 9.1%, the “Improvement (%) of Carcass Yield” value ([2]; 0 vs 3 ppm, 7 days) was 1.7% and the “Improvement (%) of Feed Efficiency (FE)” value ([2]; 0 vs 3 ppm, 7 days) was 25.9%. The “Improvement (%) of Average Daily Gain” value ([2]; 0 vs 3 ppm, 14 days) was 9.2%, the “Improvement (%) of Body Weight Day 42” value ([2]; 0 vs 3 ppm, 14 days) was 5.1% and the “Improvement (%) of Breast Weight” value ([2]; 0 vs 3 ppm, 14 days) was 16.1%. For the same molecule, the “Improvement (%) of Carcass Yield” value ([2]; 0 vs 3 ppm, 14 days) was 2.9%, the “Improvement (%) of Feed Efficiency (FE)” value ([2]; 0 vs 3 ppm, 14 days) was 9.7% and the “Improvement (%) of Average Daily Gain” value ([2]; 0 vs 5 ppm, 7 days) was 23.8%. The “Improvement (%) of Body Weight Day 42” value ([2]; 0 vs 5 ppm, 7 days) was 4.1%, the “Improvement (%) of Breast Weight” value ([2]; 0 vs 5 ppm, 7 days) was 12.6% and the “Improvement (%) of Carcass Yield” value ([2]; 0 vs 5 ppm, 7 days) was 3.9%. For the same molecule, the “Improvement (%) of Feed Efficiency (FE)” value ([2]; 0 vs 5 ppm, 7 days) was 33.7%, the “Improvement (%) of Average Daily Gain” value ([2]; 0 vs 5 ppm, 14 days) was 13.7% and the “Improvement (%) of Body Weight Day 42” value ([2]; 0 vs 5 ppm, 14 days) was 8.0%. The “Improvement (%) of Breast Weight” value ([2]; 0 vs 5 ppm, 14 days) was 12.6%, the “Improvement (%) of Carcass Yield” value ([2]; 0 vs 5 ppm, 14 days) was 2.8% and the “Improvement (%) of Feed Efficiency (FE)” value ([2]; 0 vs 5 ppm, 14 days) was 9.9%. The “Body Weight Day 42” value [2, 5] was 4.816 lb, the “Breast Weight” value [2, 5] was 1.133 lb and the “Breast Yield” value [2, 5] was 23.91%. For the same molecule, the “Carcass Yield” value [2, 5] was 81.45%, the “Feed Efficiency (FE) (Feed/Gain Ratio)” value [2, 5] was 3.831 and the “Body Weight Day 42” value [2, 6] was 4.898 lb. The “Breast Weight” value [2, 6] was 1.138 lb, the “Breast Yield” value [2, 6] was 24.27% and the “Carcass Yield” value [2, 6] was 79.79%. For the same molecule, the “Feed Efficiency (FE) (Feed/Gain Ratio)” value [2, 6] was 2.632, the “Body Weight Day 42” value [2, 7] was 4.902 lb and the “Breast Weight” value [2, 7] was 1.191 lb. The “Breast Yield” value [2, 7] was 23.82%, the “Carcass Yield” value [2, 7] was 79.71% and the “Feed Efficiency (FE) (Feed/Gain Ratio)” value [2, 7] was 3.085. For the same molecule, the “Body Weight Day 42” value [2, 8] was 4.956 lb, the “Breast Weight” value [2, 8] was 1.268 lb and the “Breast Yield” value [2, 8] was 25.11%. For the same molecule, the “Carcass Yield” value [2, 8] was 80.62%, the “Feed Efficiency (FE) (Feed/Gain Ratio)” value [2, 8] was 2.301 and the “Body Weight Day 42” value [2, 9] was 4.910 lb. The “Breast Weight” value [2, 9] was 1.230 lb, the “Breast Yield” value [2, 9] was 26.12% and the “Carcass Yield” value [2, 9] was 81.41%. For the same molecule, the “Feed Efficiency (FE) (Feed/Gain Ratio)” value [2, 9] was 2.760, the “Body Weight Day 42” value [2, 10] was 5.093 lb and the “Breast Weight” value [2, 10] was 1.230 lb. For the same molecule, the “Breast Yield” value [2, 10] was 24.20%, the “Carcass Yield” value [2, 10] was 80.51% and the “Feed Efficiency (FE) (Feed/Gain Ratio)” value [2, 10] was 2.295. The “body weight increase versus controls” value ([2]; 5 ppm, 14 days (Z5-14d) versus Z0-0d, day 42) was 0.38 lb, the “reduction of time to reach the target market weight” value ([2]; 5 ppm, 14 days, 0.38 lb/0.174 lb/day) was “approximately 2 days” and the “effect on mean mortality rates compared to the control group” value ([2]; any level (1, 3, 5 ppm), either feeding duration (7 or 14 day)) was “no significant effect”. The “breast yield, average of the zilpaterol treatment groups” value ([2]; average over 1, 3, 5 ppm and 7, 14 days, control 25.46%) was 24.57%, the feed efficiency (chickens) was “improved” and the “carcass yield improvement compared to control” value (Broiler chickens [3]; 1 ppm daily for 7 weeks, P<0.01) was 2%. For the same molecule, the “performance increase in Average Daily Gain (ADG)” value (Broiler chickens [3]; [11]) was 1.3-2.6%, the “performance increase in Feed Efficiency (FE)” value (Broiler chickens [3]; [11]) was 0.6%-1.9 and the feed conversion ratio (Japanese quails) was “improved”. The “weight gain, final body weight, feed intake and carcass, thigh, breast liver and carcass weight” value (Japanese quails) was “not a significant difference”.
For CC(CCc1ccc(O)cc1)NCC(O)c1ccc(O)cc1 (stereo not drawn) [ractopamine], the “daily body weight gain” value (Broiler chickens [4]) is given as “not significantly affected”, the feed conversion (Broiler chickens [4]) is given as “not significantly affected” and the feed intake (Broiler chickens [4]) is given as “not significantly affected”.
